Source: article PMC12808100, “The non-catalytic DNA polymerase ε subunit is an NPF motif recognition protein” (Nature Communications, 2025)
Residues, ends and D or L forms follow the SMILES beside them.

What was measured:
PLEK = PLEK (Homo sapiens, UniProt P08567); test: nHU-MS peptide bait, prey PLEK
EHD1 = molecular target: T1, EHD1 (Homo sapiens, UniProt Q9H4M9); test: nHU-MS peptide bait, prey EHD1; conditions: for BI: prey EHD1, MS7_Varjosalo
T1 sequence (Q9H4M9 1-534): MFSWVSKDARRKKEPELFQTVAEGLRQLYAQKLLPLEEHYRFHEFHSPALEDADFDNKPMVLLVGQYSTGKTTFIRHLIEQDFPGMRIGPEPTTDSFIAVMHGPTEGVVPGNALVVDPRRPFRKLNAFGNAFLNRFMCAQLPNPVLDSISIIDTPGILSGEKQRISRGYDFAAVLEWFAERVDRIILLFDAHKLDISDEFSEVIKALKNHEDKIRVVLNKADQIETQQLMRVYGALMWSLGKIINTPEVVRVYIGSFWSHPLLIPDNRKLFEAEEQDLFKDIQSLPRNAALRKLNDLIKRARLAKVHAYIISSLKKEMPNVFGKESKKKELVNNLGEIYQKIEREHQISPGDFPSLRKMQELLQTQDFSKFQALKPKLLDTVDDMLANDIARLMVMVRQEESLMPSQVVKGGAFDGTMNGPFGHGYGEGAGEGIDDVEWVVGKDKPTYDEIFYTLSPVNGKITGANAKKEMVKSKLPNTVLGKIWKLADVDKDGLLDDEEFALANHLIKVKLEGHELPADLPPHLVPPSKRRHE

CCDC174 = CCDC174 (Homo sapiens, UniProt Q6PII3); test: nHU-MS peptide bait, prey CCDC174
Chain of CCDC174 (Q6PII3 whole entry): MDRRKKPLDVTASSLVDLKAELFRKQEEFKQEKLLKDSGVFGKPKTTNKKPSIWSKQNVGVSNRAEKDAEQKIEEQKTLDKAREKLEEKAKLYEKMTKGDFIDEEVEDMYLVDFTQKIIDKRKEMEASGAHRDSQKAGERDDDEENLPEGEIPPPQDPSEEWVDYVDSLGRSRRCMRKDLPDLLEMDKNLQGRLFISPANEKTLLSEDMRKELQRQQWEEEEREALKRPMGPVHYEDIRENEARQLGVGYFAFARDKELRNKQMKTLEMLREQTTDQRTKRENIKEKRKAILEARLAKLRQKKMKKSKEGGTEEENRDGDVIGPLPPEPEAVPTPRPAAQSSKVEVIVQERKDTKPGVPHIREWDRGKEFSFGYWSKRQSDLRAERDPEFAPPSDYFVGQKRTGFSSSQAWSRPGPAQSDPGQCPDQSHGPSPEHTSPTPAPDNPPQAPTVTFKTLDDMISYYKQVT

SSBP2 = SSBP2 (Homo sapiens, UniProt P81877+Q86U70); test: nHU-MS peptide bait, prey SSBP2
Chain of SSBP2 (P81877 whole entry): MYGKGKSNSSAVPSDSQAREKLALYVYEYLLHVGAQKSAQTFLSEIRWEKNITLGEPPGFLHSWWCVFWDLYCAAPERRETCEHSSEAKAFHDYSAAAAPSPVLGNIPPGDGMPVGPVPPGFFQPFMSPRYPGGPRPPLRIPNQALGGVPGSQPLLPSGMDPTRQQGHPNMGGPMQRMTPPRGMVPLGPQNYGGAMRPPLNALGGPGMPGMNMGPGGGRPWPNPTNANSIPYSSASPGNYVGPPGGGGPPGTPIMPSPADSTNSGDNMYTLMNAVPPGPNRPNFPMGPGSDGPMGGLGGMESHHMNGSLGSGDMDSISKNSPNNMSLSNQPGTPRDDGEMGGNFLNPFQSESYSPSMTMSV
Chain of SSBP2 (Q86U70 whole entry): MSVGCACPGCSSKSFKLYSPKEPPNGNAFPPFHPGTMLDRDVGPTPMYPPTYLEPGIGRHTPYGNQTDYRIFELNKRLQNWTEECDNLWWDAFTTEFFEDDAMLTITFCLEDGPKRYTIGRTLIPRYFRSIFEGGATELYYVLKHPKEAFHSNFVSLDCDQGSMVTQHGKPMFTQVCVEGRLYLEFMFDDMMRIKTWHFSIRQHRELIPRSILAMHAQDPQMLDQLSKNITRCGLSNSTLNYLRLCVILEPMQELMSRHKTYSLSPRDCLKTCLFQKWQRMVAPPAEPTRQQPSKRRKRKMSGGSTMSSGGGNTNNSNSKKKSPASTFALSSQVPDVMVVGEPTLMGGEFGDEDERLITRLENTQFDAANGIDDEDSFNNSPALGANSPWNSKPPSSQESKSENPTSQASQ

AURKA = AURKA (Homo sapiens, UniProt O14965); test: nHU-MS peptide bait, prey AURKA
Chain of AURKA (O14965 whole entry): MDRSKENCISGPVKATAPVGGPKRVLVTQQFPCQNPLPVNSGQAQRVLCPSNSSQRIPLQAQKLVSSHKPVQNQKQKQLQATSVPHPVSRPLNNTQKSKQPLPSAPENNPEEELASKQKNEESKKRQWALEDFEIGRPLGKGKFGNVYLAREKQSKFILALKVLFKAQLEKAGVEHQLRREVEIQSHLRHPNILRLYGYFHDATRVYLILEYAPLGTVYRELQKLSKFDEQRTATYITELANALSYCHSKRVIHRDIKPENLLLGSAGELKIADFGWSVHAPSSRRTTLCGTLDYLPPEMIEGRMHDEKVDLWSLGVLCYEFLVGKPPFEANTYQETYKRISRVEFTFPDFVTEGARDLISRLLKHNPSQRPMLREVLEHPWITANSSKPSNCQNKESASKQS

SSBP4 = SSBP4 (Homo sapiens, UniProt Q86U70+Q9BWG4); test: nHU-MS peptide bait, prey SSBP4
Chain of SSBP4 (Q9BWG4 whole entry): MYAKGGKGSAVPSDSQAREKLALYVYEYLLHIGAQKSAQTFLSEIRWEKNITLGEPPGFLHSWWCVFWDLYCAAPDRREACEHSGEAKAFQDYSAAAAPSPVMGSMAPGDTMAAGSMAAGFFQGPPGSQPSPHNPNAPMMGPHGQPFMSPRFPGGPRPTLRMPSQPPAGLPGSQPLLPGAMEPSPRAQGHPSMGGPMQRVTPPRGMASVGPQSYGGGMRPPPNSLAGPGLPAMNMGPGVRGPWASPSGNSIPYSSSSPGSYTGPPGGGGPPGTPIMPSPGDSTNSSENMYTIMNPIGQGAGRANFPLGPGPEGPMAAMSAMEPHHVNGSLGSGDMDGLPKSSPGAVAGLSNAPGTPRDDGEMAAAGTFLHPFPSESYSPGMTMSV
Chain of SSBP4 (Q86U70 whole entry): as the sequence (Q86U70 whole entry) above

HSPA5 = HSPA5 (Homo sapiens, UniProt P11021); test: nHU-MS peptide bait, prey HSPA5
Chain of HSPA5 (P11021 19-654): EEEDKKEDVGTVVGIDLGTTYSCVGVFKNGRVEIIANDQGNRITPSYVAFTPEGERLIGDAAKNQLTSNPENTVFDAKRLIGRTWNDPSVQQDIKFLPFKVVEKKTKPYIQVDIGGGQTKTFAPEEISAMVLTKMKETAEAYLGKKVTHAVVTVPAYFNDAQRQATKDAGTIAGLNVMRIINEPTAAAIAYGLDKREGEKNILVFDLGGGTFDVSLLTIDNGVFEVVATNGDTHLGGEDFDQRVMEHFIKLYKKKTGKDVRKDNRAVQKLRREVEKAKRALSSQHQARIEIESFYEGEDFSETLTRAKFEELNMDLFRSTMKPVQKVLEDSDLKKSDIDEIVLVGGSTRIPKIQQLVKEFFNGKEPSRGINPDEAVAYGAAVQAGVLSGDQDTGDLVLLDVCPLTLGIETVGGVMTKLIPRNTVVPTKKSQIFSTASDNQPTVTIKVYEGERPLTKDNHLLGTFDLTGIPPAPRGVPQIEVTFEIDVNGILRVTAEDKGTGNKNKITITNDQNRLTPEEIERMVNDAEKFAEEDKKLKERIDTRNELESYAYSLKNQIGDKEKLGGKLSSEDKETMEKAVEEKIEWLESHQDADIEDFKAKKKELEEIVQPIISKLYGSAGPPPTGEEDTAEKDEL

PPP2R2A = molecular target: T2, PPP2R2A (Homo sapiens, UniProt P63151); test: nHU-MS peptide bait, prey PPP2R2A; conditions: for Kd: pKapp
T2 sequence (P63151 1-447): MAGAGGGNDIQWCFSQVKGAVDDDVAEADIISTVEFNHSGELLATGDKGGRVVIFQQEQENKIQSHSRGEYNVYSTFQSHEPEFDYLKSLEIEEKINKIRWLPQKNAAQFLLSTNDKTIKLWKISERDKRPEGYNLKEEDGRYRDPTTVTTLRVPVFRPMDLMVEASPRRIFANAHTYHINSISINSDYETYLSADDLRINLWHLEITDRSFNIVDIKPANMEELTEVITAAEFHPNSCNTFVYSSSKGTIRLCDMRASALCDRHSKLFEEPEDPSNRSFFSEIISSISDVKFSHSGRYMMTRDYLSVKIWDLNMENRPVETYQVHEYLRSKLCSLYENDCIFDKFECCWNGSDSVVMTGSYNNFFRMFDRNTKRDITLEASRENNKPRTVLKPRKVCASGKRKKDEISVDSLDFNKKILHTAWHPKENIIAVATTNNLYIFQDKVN

Chain of PLEK (P08567 whole entry): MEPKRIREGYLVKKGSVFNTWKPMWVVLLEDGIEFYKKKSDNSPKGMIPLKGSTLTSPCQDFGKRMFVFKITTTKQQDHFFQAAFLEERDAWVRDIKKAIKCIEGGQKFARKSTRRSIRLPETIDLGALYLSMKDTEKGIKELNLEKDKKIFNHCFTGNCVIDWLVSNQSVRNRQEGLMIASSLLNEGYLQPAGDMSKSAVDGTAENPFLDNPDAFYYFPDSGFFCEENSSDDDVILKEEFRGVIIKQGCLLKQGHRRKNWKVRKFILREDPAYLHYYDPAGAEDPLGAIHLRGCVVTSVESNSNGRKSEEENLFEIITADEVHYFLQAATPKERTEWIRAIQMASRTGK

SMILES	Kd (PLEK)	BI (PLEK; prey PLEK, MS7_Varjosalo)	Kd (EHD1)	BI (EHD1)	Kd (CCDC174)	BI (CCDC174; prey CCDC174, MS7_Varjosalo)	Kd (SSBP2)	BI (SSBP2; prey SSBP2, MS8_Varjosalo)	Kd (AURKA)	BI (AURKA; prey AURKA, MS8_Varjosalo)	Kd (SSBP4)	BI (SSBP4; prey SSBP4, MS8_Varjosalo)	Kd (HSPA5)	BI (HSPA5; prey HSPA5, MS5_Varjosalo)	BI (PPP2R2A; MS5_Varjosalo)	BI (PPP2R2A; MS7_Varjosalo)	Kd (PPP2R2A; MS5_Varjosalo)	Kd (PPP2R2A; MS7_Varjosalo)
CC[C@H](C)[C@H](NC(=O)[C@@H](N)CCCNC(=N)N)C(=O)N1CCC[C@H]1C(=O)N[C@H](C(=O)N[C@@H](CC(C)C)C(=O)N[C@@H](CC(N)=O)C(=O)N1CCC[C@H]1C(=O)N[C@@H](Cc1ccccc1)C(=O)N[C@@H](CCC(=O)O)C(=O)N[C@@H](CO)C(=O)N1CCC[C@H]1C(=O)N[C@@H](CO)C(=O)N[C@@H](CC(=O)O)C(=O)N[C@@H](Cc1ccc(O)cc1)C(=O)N[C@@H](CO)C(=O)N[C@@H](CC(N)=O)C(=O)N[C@@H](CC(C)C)C(=O)N[C@@H](Cc1c[nH]cn1)C(=O)N[C@@H](CCC(=O)O)C(=O)N[C@@H](CCC(N)=O)C(=O)N[C@H](C(N)=O)[C@@H](C)O)C(C)C [BORA] (H-RIPVLNPFESPSDYSNLHEQT-NH2)	9.44 µM	0.5145	39.4 µM	0.2025	10.9 µM	0.4787												
CSCC[C@H](NC(=O)[C@@H]1CCCN1C(=O)[C@@H](NC(=O)[C@@H]1CCCN1C(=O)[C@@H]1CCCN1C(=O)[C@@H]1CCCN1C(=O)[C@H](C)NC(=O)[C@H](Cc1ccccc1)NC(=O)[C@H](CCC(=O)O)NC(=O)[C@@H](NC(=O)[C@H](CC(C)C)NC(=O)[C@@H](N)Cc1c[nH]cn1)[C@@H](C)O)[C@@H](C)O)C(=O)N[C@H](C(=O)N[C@@H](CC(=O)O)C(=O)N[C@@H](Cc1c[nH]cn1)C(=O)N[C@@H](CC(C)C)C(=O)N[C@H](C(=O)N[C@@H](C)C(=O)N[C@@H](CO)C(=O)N[C@@H](CC(N)=O)C(=O)N1CCC[C@H]1C(=O)N[C@@H](Cc1ccccc1)C(=O)N[C@@H](CCC(=O)O)C(=O)N[C@@H](CC(=O)O)C(=O)N[C@@H](CC(=O)O)C(=O)N[C@@H](Cc1ccccc1)C(=O)NCC(=O)N[C@@H](C)C(=O)N1CCC[C@H]1C(=O)N[C@@H](CCCCN)C(N)=O)C(C)C)C(C)C [PYGO2 57-86]							18.9 µM	0.3462	28.6 µM	0.2591	12.2 µM	0.451						
CC[C@H](C)[C@H](NC(=O)[C@H](Cc1ccccc1)NC(=O)[C@@H]1CCCN1C(=O)[C@H](CC(N)=O)NC(=O)[C@@H]1CCCN1C(=O)[C@H](CO)NC(=O)[C@H](CO)NC(=O)[C@@H](N)CCCNC(=N)N)C(=O)N[C@H](C(=O)NCC(=O)N[C@@H](CC(C)C)C(=O)N[C@H](C(=O)N[C@@H](CCCNC(=N)N)C(=O)N[C@H](C(=O)N[C@@H](CC(N)=O)C(=O)N1CCC[C@H]1C(=O)N[C@@H](Cc1ccccc1)C(=O)N[C@@H](CO)C(=O)N[C@@H](CC(=O)O)C(=O)N[C@@H](CCCNC(=N)N)C(=O)N[C@H](C(=O)N[C@@H](C)C(=O)N[C@@H](C)C(=O)N1CCC[C@H]1C(=O)NCC(=O)N[C@@H](CC(N)=O)C(=O)N1CCC[C@H]1C(=O)N[C@@H](Cc1ccccc1)C(=O)N[C@@H](CCCNC(=N)N)C(=O)N[C@@H](C)C(=O)N[C@@H](CCCCN)C(=O)N[C@@H](CO)C(N)=O)[C@@H](C)O)[C@@H](C)O)[C@@H](C)O)[C@@H](C)O [SYNJ1_1390-1421] (H-RSSPNPFITGLTRTNPFSDRTAAPGNPFRAKS-NH2)			24.3 µM	0.2916									19.9 µM	0.3347	0.2309	0.2507	33.3 µM	29.9 µM
